Measurements from paper PMC4280362 (Biochimie, 2014).

Key:
[1] = target: T1, Isovaleryl-CoA dehydrogenase (IVD) (Homo sapiens, UniProt P26440); assay: anaerobic UV/visible spectral titration; type: binding
T1 sequence (P26440 33-426): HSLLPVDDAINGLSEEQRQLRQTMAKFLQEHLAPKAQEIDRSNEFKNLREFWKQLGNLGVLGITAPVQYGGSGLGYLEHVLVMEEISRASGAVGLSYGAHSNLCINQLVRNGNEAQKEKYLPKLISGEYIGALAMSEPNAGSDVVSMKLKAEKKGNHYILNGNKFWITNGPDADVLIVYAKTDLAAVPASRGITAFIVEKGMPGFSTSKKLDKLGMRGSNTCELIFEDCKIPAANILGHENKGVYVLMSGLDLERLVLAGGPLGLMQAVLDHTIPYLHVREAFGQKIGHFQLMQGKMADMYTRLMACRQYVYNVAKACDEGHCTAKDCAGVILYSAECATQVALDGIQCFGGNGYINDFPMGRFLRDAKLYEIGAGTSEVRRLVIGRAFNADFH

[2] = target: T2, recombinant human isovaleryl-CoA dehydrogenase, CoA-persulfide-free (human, UniProt P26440 33-426); assay: competitive inhibition of enzyme activity
T2 sequence: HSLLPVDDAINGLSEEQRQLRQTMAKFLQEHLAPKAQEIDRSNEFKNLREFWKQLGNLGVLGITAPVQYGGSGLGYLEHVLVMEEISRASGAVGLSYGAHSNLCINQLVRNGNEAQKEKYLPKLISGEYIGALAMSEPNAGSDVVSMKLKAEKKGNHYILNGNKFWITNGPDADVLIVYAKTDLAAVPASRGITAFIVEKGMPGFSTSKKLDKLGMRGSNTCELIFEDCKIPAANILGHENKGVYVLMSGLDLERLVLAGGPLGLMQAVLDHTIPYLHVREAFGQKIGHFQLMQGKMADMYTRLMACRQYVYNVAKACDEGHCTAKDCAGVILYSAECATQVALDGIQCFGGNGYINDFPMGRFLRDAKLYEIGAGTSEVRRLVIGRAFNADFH

Molecule: CC(C)CC(=O)SCCNC(=O)CCNC(=O)[C@H](O)C(C)(C)COP(=O)(O)OP(=O)(O)OC[C@H]1O[C@@H](n2cnc3c(N)ncnc32)[C@H](O)[C@@H]1OP(=O)(O)O [isovaleryl-CoA]
- Kd [1]: 0.54 µM

Molecule: RYATLPNIMKAK [ETF docking peptide, ETF βArg191-βLys202]
- Ki [2]: 1500 µM
